The results in this text go back to patent publication US7161064B2, “Method for producing stably transformed duckweed using microprojectile bombardment” (North Carolina State University, priority 1997, dated 2007).

Holding throughout (assay type): cell-based
The subject of one data set is Spirodela species. Briefly: Callus induction screen across Lemnaceae strains, frond health. The settings on record: 4-5 weeks. How it is done: Duckweed fronds were grown in liquid Schenk and Hildebrandt medium containing 1% sucrose for two weeks at 23° C. under a 16 hr light/8 hr dark photoperiod with light intensity of approximately 40 μmol/m^2·sec prior to experimentation. For callus induction, six basal media were used: Murashige and Skoog, Schenk and Hildebrand (Schenk and Hildebrandt, Can. J. Bot. 50, 199 (1972)), Nitsch and Nitsch, N6 (Chu et al., Scientia Sinica 18, 659 (1975)), Gamborg's B5, and Hoagland's. The two plant growth regulator combinations known to elicit callus proliferation in L. gibba G3 were used: 30 μM 2,4-D and 0.02 μM BA, and 5 μM 2,4-D and 2 μM BA. For each strain, 200 ml of each basal medium was prepared with 3% sucrose, 0.15% Gelrite, and 0.4% Difco Bacto-agar. The 200 ml was divided into 2, 100 ml portions, each to be used to prepare the two plant growth regulator concentrations. The pH of all media was adjusted to 5.8, the media were autoclaved for 30 minutes at 121° C., cooled and 4, 100 mm×15 mm petri dishes were poured from each 100 ml portion.
A 6 media×2 plant growth regulator combinations, 12 treatment, random block experimental design was used for each duckweed strain tested. […] At this time the fronds were evaluated for general health (judged by color: green to yellow, and vigor of proliferation) and the frequency of callus initiation of the three types: Type I, Type II, and Type III.

Data set [1] has as its system L. minor strains 8744 and 8627. Briefly: Callus induction from Lemna minor fronds, auxin and cytokinin type and concentration. The settings on record: MS medium, 6 weeks. The protocol: In the auxin type and concentration experiment, four auxins: 2,4-D, NAA, IBA and dicamba were tested, each at four concentrations: 2, 5, 10 and 20 μM, for their ability to induce callus formation from L. minor strains 8744 and 8627. The basal medium used was MS and media and experimental protocol was basically that followed in Example 10. Fronds used in this experiment were grown for 2 weeks prior to plating on callus induction medium under 3 different culture conditions: 1) SH medium without plant growth regulators, 2) F medium with 24 μM 2,4-D and 2 μM 2-iP, and 3) SH medium with 24 μM 2,4-D and 2 μM 2-iP. Fronds were separated, the roots cut off and then plated on induction medium. The fronds were incubated under conditions given in Example 8 for 6 weeks at which time cultures were evaluated for the presence or absence of callus induction, the degree to which the callus proliferated, and the basic morphology of the callus present.
In the cytokinin type and concentration experiment, four cytokinins: BA, kinetin, 2-iP, and thidiazuron were tested, each at five concentrations: 0.05, 0.1, 0.5, 1 and 5 μM, for their ability to induce callus formation from L. minor strains 8744 and 8627. The basal medium used was MS and the media and experimental protocol were basically as described in Example 11. Fronds used in this experiment were grown for 2 weeks prior to plating on callus induction medium under 3 different culture conditions: 1) SH medium without plant growth regulators, 2) F medium with 24 μM 2,4-D and 2 μM 2-iP, and 3) SH medium with 24 μM 2,4-D and 2 μM 2-iP. Fronds were separated, the roots cut off and then plated on induction medium. The fronds were incubated under conditions given in Example 8 for 6 weeks at which time cultures were evaluated for the presence or absence of callus induction, the degree to which the callus proliferated, and the basic morphology of the callus.

The test system of the next data set is Lemna gibba G3. Briefly: Callus induction from Lemna gibba G3 fronds on solid medium with plant growth regulators. The protocol:
Duckweed fronds were grown in liquid Hoagland's medium (Hoagland and Snyder, Proc. Amer. Soc. Hort. Sci. 30, 288 (1933)) containing 3% sucrose for two weeks at 23° C. under a 16 hr light/8 hr dark photoperiod with light intensity of approximately 40 μmol/m^2·sec prior to experimentation. For callus induction, eighteen, 100 ml portions of Murashige and Skoog basal medium (Murashige and Skoog, Physiol. Plant. 15, 473 (1962)) containing 3% sucrose, 0.15% Gelrite and 0.4% Difco Bacto-agar were prepared with 2,4-D concentrations of 10, 20 and 50 μM and BA concentrations of 0, 0.01, 0.1, 1.0, 2.0, and 10.0 μM. All media were pH adjusted to 5.8, autoclaved at 121° C. for 20 minutes, cooled, and each 100 ml was poured into 4, 100 mm×15 mm petri dishes.
(§1) A three 2,4-D concentrations×six BA concentrations, full-factorial experimental design (18 treatments in total) with four replications, with one petri dish per replication and 5 fronds per petri dish was used. For callus induction, 5 individual duckweed fronds were placed abaxial side down on each plate of medium. The 72 plates were incubated at 23° C., for 27 days under a 16 hr light/8 hr dark photoperiod with light intensity of approximately 40 μmol/m^2·sec. After 27 days the duckweed tissue was transferred to fresh media of the same type and incubation was continued another 35 days under the same temperature and light culturing conditions.
Duckweed fronds were grown in liquid Hoagland's medium containing 3% sucrose for two weeks at 23° C. under a 16 hr light/8 hr dark photoperiod with light intensity of approximately 40 μmol/m^2·sec. prior to experimentation. For callus induction, forty 100 ml portions of Murashige and Skoog medium with 3% sucrose, 0.15% Gelrite, and 0.4% Difco Bacto-agar were prepared with dicamba concentrations of 10, 20, 30, 40, 50, 60, 80, 100 μM and BA concentrations of 0.01, 0.05, 0.1, 0.5, and 1.0 μM. All media were pH adjusted to 5.8, autoclaved at 121° C. for 20 minutes, cooled, and each 100 ml was poured into 4, 100 mm×15 mm petri dishes.
as §1, with “An eight dicamba concentrations×five BA” for “A three 2,4-D concentrations×six BA”, “design (40” for “design (18”, “The” for “The 72”, “After 28” for “After 27”, “another 45” for “another 35”
Duckweed fronds were grown in liquid Schenk and Hildebrandt medium containing 1% sucrose for two weeks at 23° C. under a 16 hr light/8 hr dark photoperiod with light intensity of approximately 40 μmol/m^2·sec prior to experimentation. For callus induction, three basal media were tested: Murashige and Skoog, Schenk and Hildebrandt, and N6. Benzyladenine was used as the cytokinin at a concentration of 1 μM. The auxin concentrations varied with auxin type. For the relatively strong auxins, 2,4-D and dicamba, concentrations were 0, 1, 5, 10 and 20 μM. For weak auxins, NAA and IBA, the concentrations were 0, 5, 10, 20 and 50 μM. For each medium dose-response experiment, 2 liters of basal medium were prepared with BA and the pH adjusted to 5.8. The volume was aliquoted as 20, 100 ml portions. To each of these portions, the appropriate amount of auxin was added and the medium was adjusted to 0.15% Gelrite, and 0.4% Difco Bacto-agar. The media were autoclaved for 30 minutes at 121° C., cooled and 4, 100 mm×15 mm petri dishes were poured from each 100 ml portion.
A 3 media×4 auxin×5 concentration combinations, 60 treatment, randomized dose-response experimental design was used. The design was replicated two times, with one petri dish per replication and 5 fronds per petri dish.

`O=C(O)COc1ccc(Cl)cc1Cl` [2,4-D, 2,4-dichlorophenoxyacetic acid]: the frond survival entry with Spirodela species (higher concentration of 2,4-D (30 μM with 0.02 μM BA)) is “did not survive”. In the data set with Spirodela species (lower concentration of 2,4-D (5 μM with 2 μM BA)), the frond growth result was “did not grow well”. The “concentration giving the best callus induction” value in data set [1] (strain 8627, auxin experiment) came out at 5 µM. The “concentration giving the best callus induction” value in data set [1] (strain 8744, auxin experiment) turned out to be 5 µM. The “concentrations at which callus proliferation was the most vigorous” value with Lemna gibba G3 (2,4-D x BA factorial, Murashige and Skoog medium, 62 days) is 20 to 50 µM. Moreover, in the data set on Lemna gibba G3 (auxin with 1 μM BA, five weeks), the “compact Type I callus induction on MS medium” value was “some degree of callus induction” and the “compact Type I callus induction on N6 medium” value is reported as “produced callus”.
